Measurements taken from the supplement of paper PMC4862054.

What was measured:
Test in all cases: normalised response (% of control), CellTiter-Glo; higher = more viable cells (100 = DMSO, 0 = benzethonium chloride kill control)
Details in all cases: incubation time: 72 h
[1] = test system: MDA-MB-453
Procedure, shortened: (§1)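 Breast cancer cell lines were exposed for 72 h in 384-well plates to compound at 5 concentrations, 10-fold apart, covering a 10,000-fold range fixed for each compound. Plates were read for CellTox Green fluorescence and CellTiter-Glo luminescence and normalised to 0.1 % DMSO (100) and a positive kill control (0). Each value is the normalised signal at one concentration of the series.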

[2] = test system: MDA-MB-231
Procedure, shortened: as §1

[3] = test system: BT-474
Procedure, shortened: as §1

[4] = test system: HCC1599
Procedure, shortened: as §1

[5] = test system: CAL-148
Procedure, shortened: as §1

[6] = test system: MFM-223
Procedure, shortened: as §1

[7] = test system: BT-549
Procedure, shortened: as §1

[8] = test system: CAL-85-1
Procedure, shortened: as §1

[9] = test system: HCC1937
Procedure, shortened: as §1

[10] = test system: HDQ-P1
Procedure, shortened: as §1

[11] = test system: Hs578T
Procedure, shortened: as §1

[12] = test system: CAL-120
Procedure, shortened: as §1

[13] = test system: SK-BR-3
Procedure, shortened: as §1

[14] = test system: CAL-51
Procedure, shortened: as §1

[15] = test system: MDA-MB-468
Procedure, shortened: as §1

[16] = test system: MDA-MB-436
Procedure, shortened: as §1

[17] = test system: HCC1143
Procedure, shortened: as §1

[18] = test system: DU-4475
Procedure, shortened: as §1

[19] = test system: MCF-10A
Procedure, shortened: as §1

[20] = test system: BT-474; remark: listed apart in the source
Procedure, shortened: as §1

[21] = test system: BT-549; remark: listed apart in the source
Procedure, shortened: as §1

[22] = test system: CAL-85-1; remark: listed apart in the source
Procedure, shortened: as §1

[23] = test system: HCC1937; remark: listed apart in the source
Procedure, shortened: as §1

[24] = test system: Hs578T; remark: listed apart in the source
Procedure, shortened: as §1

[25] = test system: CAL-120; remark: listed apart in the source
Procedure, shortened: as §1

[26] = test system: SK-BR-3; remark: listed apart in the source
Procedure, shortened: as §1

[27] = test system: HCC1143; remark: listed apart in the source
Procedure, shortened: as §1

SMILES | normalised response [1] [%] | normalised response [2] [%] | normalised response [3] [%] | normalised response [4] [%] | normalised response [5] [%] | normalised response [6] [%] | normalised response [7] [%] | normalised response [8] [%] | normalised response [9] [%] | normalised response [10] [%] | normalised response [11] [%] | normalised response [12] [%] | normalised response [13] [%] | normalised response [14] [%] | normalised response [15] [%] | normalised response [16] [%] | normalised response [17] [%] | normalised response [18] [%] | normalised response [19] [%] | normalised response [20] [%] | normalised response [21] [%] | normalised response [22] [%] | normalised response [23] [%] | normalised response [24] [%] | normalised response [25] [%] | normalised response [26] [%] | normalised response [27] [%]
COc1ccc(-c2cc3c(C)nc(N)nc3n([C@H]3CC[C@H](OCCO)CC3)c2=O)cn1 (1000 nM) | 12.9 | 24.7 | 34.7 | 57.1 | 26.2 | 26.2 | 17.8 | 20.7 | 38.7 | 21.9 | 19.3 | 27 | 14.2 | 10 | 20.5 | 37.5 | 21.4 | 48 | 19.5 |  |  |  |  |  |  |  | 
O=C(Nc1c[nH]nc1-c1nc2ccc(CN3CCOCC3)cc2[nH]1)NC1CC1 [AT9283] (1000 nM) |  |  |  |  |  |  |  |  |  |  |  |  |  |  |  |  |  |  |  | 58.6 | 27.8 | 59.6 | 73.7 | 54.8 | 46.9 | 70.8 | 60.8
COc1cc(CCc2cc(NC(=O)c3ccc(N4CC(C)NC(C)C4)cc3)n[nH]2)cc(OC)c1 (stereo not given) [AZD4547] (100 nM) | 90.4 | 106 | 102 | 107 | 104 | 53.1 | 88.4 | 96.2 | 93.4 | 104 | 88.1 | 80 | 89.3 | 91.4 | 92.2 | 99.2 | 93.1 | 96.9 | 86.2 |  |  |  |  |  |  |  | 
CCC/C=C/C=C/C(=O)O[C@H]1/C(=C/C(=O)OC)C[C@H]2C[C@H]([C@@H](C)O)OC(=O)C[C@H](O)C[C@@H]3C[C@H](OC(C)=O)C(C)(C)[C@](O)(C[C@@H]4C/C(=C/C(=O)OC)C[C@H](/C=C/C(C)(C)[C@]1(O)O2)O4)O3 [Bryostatin 1] (10 nM) | 96.8 | 89.2 | 87.2 | 111 | 109 | 108 | 94.2 | 97.1 | 97.8 | 91.6 | 76.9 | 101 | 69.7 | 69.1 | 100 | 99.6 | 104 | 93.7 | 103 |  |  |  |  |  |  |  | 
CO[C@@H](C(=O)N1Cc2[nH]nc(NC(=O)c3ccc(N4CCN(C)CC4)cc3)c2C1)c1ccccc1 [Danusertib] (1000 nM) | 156 | 74.7 | 75.6 | 105 | 72.2 | 43.2 | 51.4 | 90.8 | 89.3 | 82.5 | 81.6 | 75.7 | 91.2 | 59.9 | 33.6 | 80.9 | 75.1 | 83.7 | 46.2 |  |  |  |  |  |  |  | 
Cc1nc(Nc2ncc(C(=O)Nc3c(C)cccc3Cl)s2)cc(N2CCN(CCO)CC2)n1 [Dasatinib] (100 nM) | 100 | 43.8 | 54.8 | 118 | 102 | 88.5 | 61.7 | 61.8 | 69.7 | 35.3 | 61.5 | 57.5 | 104 | 51.6 | 75.4 | 83.4 | 67.9 | 100 | 32.5 |  |  |  |  |  |  |  | 
Cc1c(CN2CCN(C(=O)[C@H](C)O)CC2)sc2c(N3CCOCC3)nc(-c3cnc(N)nc3)nc12 [GDC-0980] (1000 nM) | 20.4 | 52 | 57 | 85.5 | 35.9 | 35.8 | 36.4 | 37.5 | 70.8 | 35.2 | 41.9 | 46.8 | 21.6 | 30.9 | 54.4 | 59.3 | 45.7 | 75.9 | 39.2 |  |  |  |  |  |  |  | 
Nc1cccc2c1CN(C1CCC(=O)NC1=O)C2=O (stereo not given) [Lenalidomide] (1000 nM) | 87.1 | 105 | 97.7 | 116 | 98.2 | 97.6 | 97.6 | 108 | 100 | 101 | 104 | 93.8 | 101 | 99 | 111 | 99.9 | 101 | 102 | 103 |  |  |  |  |  |  |  | 
C[C@]12O[C@H](C[C@]1(O)CO)n1c3ccccc3c3c4c(c5c6ccccc6n2c5c31)CNC4=O [Lestaurtinib] (100 nM) | 64.4 | 92.1 | 83.6 | 67.2 | 83.9 | 80.9 | 76.1 | 94.9 | 91 | 95.8 | 80.2 | 62.8 | 62.4 | 83.8 | 49.7 | 86 | 79.4 | 74.1 | 62.3 |  |  |  |  |  |  |  | 
